# Tests used:
# Interstitial collagenase = target: T1, Interstitial collagenase (Homo sapiens, UniProt P03956); assay: Inhibition of the Collagenase enzyme was determined from purified NSO cells.
# T1 sequence (P03956 whole entry): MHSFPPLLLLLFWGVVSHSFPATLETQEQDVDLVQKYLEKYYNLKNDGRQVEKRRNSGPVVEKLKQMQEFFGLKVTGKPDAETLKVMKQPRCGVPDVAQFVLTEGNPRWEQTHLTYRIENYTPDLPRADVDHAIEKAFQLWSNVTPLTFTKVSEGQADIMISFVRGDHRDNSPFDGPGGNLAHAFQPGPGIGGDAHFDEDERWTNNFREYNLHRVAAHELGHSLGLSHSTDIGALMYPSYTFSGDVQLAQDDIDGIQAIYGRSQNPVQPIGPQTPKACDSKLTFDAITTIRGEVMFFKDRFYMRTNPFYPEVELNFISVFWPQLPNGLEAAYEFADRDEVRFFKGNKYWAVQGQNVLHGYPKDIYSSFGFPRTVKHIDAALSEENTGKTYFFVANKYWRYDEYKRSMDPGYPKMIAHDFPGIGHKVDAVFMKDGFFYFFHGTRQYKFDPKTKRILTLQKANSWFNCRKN
# Stromelysin-1 = Stromelysin-1 (Homo sapiens, UniProt P08254); assay: Inhibition of the Stromelysin enzyme was determined from purified NSO cells.
# [1] = target: 72 kDa type IV collagenase (Homo sapiens, UniProt P08253); assay: Inhibition of the Gelatinase-A enzyme was determined from purified NSO cells.
# Sequence of 72 kDa type IV collagenase (P08253 whole entry): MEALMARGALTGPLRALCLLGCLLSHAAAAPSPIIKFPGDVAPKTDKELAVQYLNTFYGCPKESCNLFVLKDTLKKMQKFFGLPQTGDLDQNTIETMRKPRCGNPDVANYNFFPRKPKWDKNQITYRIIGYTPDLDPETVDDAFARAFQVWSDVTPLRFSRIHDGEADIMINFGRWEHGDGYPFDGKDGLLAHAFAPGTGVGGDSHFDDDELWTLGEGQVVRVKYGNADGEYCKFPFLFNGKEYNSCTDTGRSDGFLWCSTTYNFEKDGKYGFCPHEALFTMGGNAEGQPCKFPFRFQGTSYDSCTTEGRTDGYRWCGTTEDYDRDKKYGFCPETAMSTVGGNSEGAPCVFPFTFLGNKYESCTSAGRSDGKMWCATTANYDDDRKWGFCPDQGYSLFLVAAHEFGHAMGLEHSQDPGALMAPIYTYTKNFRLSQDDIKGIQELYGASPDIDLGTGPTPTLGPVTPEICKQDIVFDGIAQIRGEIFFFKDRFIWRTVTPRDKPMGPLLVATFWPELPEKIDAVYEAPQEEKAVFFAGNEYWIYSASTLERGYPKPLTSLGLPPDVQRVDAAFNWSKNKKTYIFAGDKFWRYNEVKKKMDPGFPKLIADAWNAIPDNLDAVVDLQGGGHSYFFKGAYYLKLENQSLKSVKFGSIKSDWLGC
# Sequence of Stromelysin-1 (P08254 whole entry): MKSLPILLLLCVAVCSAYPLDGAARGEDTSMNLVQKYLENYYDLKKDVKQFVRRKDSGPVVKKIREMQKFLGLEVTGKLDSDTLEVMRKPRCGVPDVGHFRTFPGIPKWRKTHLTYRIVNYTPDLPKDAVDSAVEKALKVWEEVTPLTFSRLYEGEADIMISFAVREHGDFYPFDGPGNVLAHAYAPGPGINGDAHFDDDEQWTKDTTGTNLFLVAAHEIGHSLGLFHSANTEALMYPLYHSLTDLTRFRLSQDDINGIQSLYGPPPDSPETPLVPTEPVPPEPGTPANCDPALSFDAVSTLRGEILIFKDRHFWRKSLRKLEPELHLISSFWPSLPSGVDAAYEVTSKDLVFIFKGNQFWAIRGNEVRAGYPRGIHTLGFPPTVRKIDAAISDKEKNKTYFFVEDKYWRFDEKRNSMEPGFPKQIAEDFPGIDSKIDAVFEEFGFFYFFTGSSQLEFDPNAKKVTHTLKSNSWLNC
SMILES,Ki (Interstitial collagenase) [nM],Ki (Stromelysin-1) [nM],Ki [1] [nM]
Cc1ccc(CCC[C@H](CC(=O)O)C(=O)N[C@@H](CC2CCCCC2)C(=O)NCCC(=O)O)cc1,100000,321,3.82
O=C(N[C@@H](CC1CCCCC1)C(=O)NCCN1CCOCC1)[C@H](CCCc1ccccc1)CP(=O)(O)O,100000,8400,812
Cc1ccc(CCC[C@H](CC(=O)O)C(=O)N[C@@H](CC2CCCCC2)C(=O)NCCCCN2CCOCC2)cc1,55000,358,10.3
NC(=O)[C@H](CC1CCCCC1)NC(=O)[C@H](CCCc1ccccc1)CC(=O)O,100000,3120,123
O=C(O)CCNC(=O)[C@H](CC1CCCCC1)NC(=O)[C@H](CCCc1ccccc1)CP(=O)(O)O,22100,952,46.5
Cc1ccc(CCC[C@H](CC(=O)O)C(=O)N[C@@H](CC2CCCCC2)C(=O)NCCc2ccccc2)cc1,22100,472,1
COc1ccc(CCC[C@H](CC(=O)O)C(=O)N[C@@H](CC2CCCCC2)C(=O)NCCc2ccc(S(N)(=O)=O)cc2)cc1,10000,1110,1.83
NS(=O)(=O)c1ccc(CCNC(=O)[C@H](CC2CCCCC2)NC(=O)[C@H](CCCc2ccc(Cl)cc2)CC(=O)O)cc1,55000,358,1.03
NS(=O)(=O)c1ccc(CCNC(=O)[C@H](CC2CCCCC2)NC(=O)[C@H](CCCc2ccccc2)CC(=O)O)cc1,40200,952,6.4
O=C(N[C@@H](CC1CCCCC1)C(=O)NCCc1ccccc1)[C@H](CCCc1ccccc1)CP(=O)(O)O,25000,701,18.9
COC(=O)CCNC(=O)[C@H](CC1CCCCC1)NC(=O)[C@H](CCCc1ccc(C)cc1)CC(=O)O,41400,353,1.17
O=C(C[C@@H](CCCc1ccccc1)C(=O)N[C@@H](CC1CCCCC1)C(=O)NCCc1ccccc1)NO,,,0.06
NC(=O)CCCNC(=O)[C@H](CC1CCCCC1)NC(=O)[C@H](CCCc1ccccc1)CC(=O)O,28400,1060,3.06
Cc1ccc(CCC[C@H](CC(=O)O)C(=O)N[C@@H](CC2CCCCC2)C(=O)NCCc2ccc(S(N)(=O)=O)cc2)cc1,47800,384,0.9
CC(C)Cc1ccc(CCC[C@H](CC(=O)O)C(=O)N[C@@H](CC2CCCCC2)C(=O)NCCc2ccccc2)cc1,> 10000,> 10000,157
O=C(O)C[C@H](CCCc1ccccc1)C(=O)N[C@@H](CC1CCCCC1)C(=O)NCCc1ccccc1,,20000,
Cc1ccc(CCC[C@H](CP(=O)(O)O)C(=O)N[C@@H](CC2CCCCC2)C(=O)NCCc2ccccc2)cc1 (stereo in doubt; form 1),100000,21200,366
Cc1ccc(CCC[C@H](CP(=O)(O)O)C(=O)N[C@@H](CC2CCCCC2)C(=O)NCCc2ccccc2)cc1 (stereo in doubt; form 2),17000,277,2.5

# Source: ChEMBL document CHEMBL1128022, “Potent and selective inhibitors of gelatinase-A 2. carboxylic and phosphonic acid derivatives” (Bioorg Med Chem Lett, 1994)
